Results: ChEMBL document CHEMBL5154652, “Design, synthesis and anti-hepatocellular carcinoma activity of 3-arylisoquinoline alkaloids” (Eur J Med Chem, 2022)
Active and inactive are the calls of the source. The calls are words filed in the database; no cut-off is given here.

Assays:
Huh-7 [1] = assay: Induction of apoptosis in human Huh-7 cells assessed as increase in cleaved caspase-9 expression at 5 to 20 uM; format: functional, cell-based; details: dose 5-20 µM
SK-HEP1 = assay: Antiproliferative activity against human SK-HEP1 cells after 72 hrs by MTT assay; format: functional, cell-based; details: SK-HEP1, 72 h
Huh-7 [2] = assay: Antiproliferative activity against human Huh-7 cells at 2 to 8 uM after 24 hrs by EdU incorporation assay; format: functional, cell-based; details: dose 2-8 µM
HCCLM9 [3] = assay: Antitumor activity against human HCCLM9 cells xenografted in male BALB/c nude mouse assessed as inhibition of tumor growth at 15 mg/kg, iv administered once a day for 21 days; format: functional, organism-based; details: time 21.0 day
BGC-823 = assay: Antiproliferative activity against human BGC-823 cells after 72 hrs by MTT assay; format: functional, cell-based; details: BGC-823, 72 h
HCCLM9 [4] = assay: Antiproliferative activity against human HCCLM9 cells after 72 hrs by MTT assay; format: functional, cell-based; details: HCCLM9, 72 h
RKO = assay: Antiproliferative activity against human RKO cells after 72 hrs by MTT assay; format: functional, cell-based
HCCLM9 [5] = assay: Induction of cell cycle arrest in human HCCLM9 cells assessed as decrease in cell accumulation at S phase at 3.75 to 15 uM measured after 48 hrs by flow cytometry analysis; format: functional, cell-based; details: dose 3.75-15 µM
HepG2 = assay: Antiproliferative activity against human HepG2 cells after 72 hrs by MTT assay; format: functional, cell-based; details: HepG2, 72 h
SGC-7901 = assay: Antiproliferative activity against human SGC-7901 cells after 72 hrs by MTT assay; format: functional, cell-based; details: SGC-7901, 72 h
MCF7 = assay: Antiproliferative activity against human MCF7 cells after 72 hrs by MTT assay; format: functional, cell-based; details: MCF7, 72 h
Huh-7 [6] = assay: Induction of apoptosis in human Huh-7 cells at 5 to 20 uM measured by Hoechst staining method; format: functional, cell-based; details: dose 5-20 µM
[7] = Genotoxicity in human HCCLM9 cells assessed as induction of DNA damage at 20 uM by comet assay; format: toxicity, cell-based; details: hcclm9, 20 µM
Huh-7 [8] = assay: Inhibition of cell invasion in human Huh-7 cells at 2 to 8 uM after 24 hrs; format: functional, cell-based; details: dose 2-8 µM
HCCLM9 [9] = assay: Inhibition of cell invasion in human HCCLM9 cells at 1.25 to 5 uM after 24 hrs; format: functional, cell-based; details: dose 1.25-5 µM
HCCLM9 [10] = assay: Induction of cell cycle arrest in human HCCLM9 cells assessed as increase in cell accumulation at G2/M phase at 3.75 to 15 uM measured after 48 hrs by flow cytometry analysis; format: functional, cell-based; details: dose 3.75-15 µM
Huh-7 [11] = assay: Induction of apoptosis in human Huh-7 cells assessed as reduction in Bcl-2 expression at 5 to 20 uM; format: functional, cell-based; details: dose 5-20 µM
Huh-7 [12] = assay: Anticlonogenic activity in human Huh-7 cells at 2 to 8 uM measured by colony formation assay; format: functional, cell-based; details: dose 2-8 µM
HCCLM9 [13] = assay: Inhibition of MMP-9 expression in human HCCLM9 cells at 3.75 to 15 uM measured by western blot analysis; format: functional, cell-based; details: dose 3.75-15 µM
HCCLM9 [14] = assay: Anticlonogenic activity in human HCCLM9 cells at 1.25 to 5 uM measured by colony formation assay; format: functional, cell-based; details: dose 1.25-5 µM
HL-60 = assay: Antiproliferative activity against human HL-60 cells after 72 hrs by MTT assay; format: functional, cell-based; details: HL-60, 72 h
Huh-7 [15] = assay: Induction of apoptosis in human Huh-7 cells assessed as increase in cytochrome C expression at 5 to 20 uM; format: functional, cell-based; details: dose 5-20 µM
HCCLM9 [16] = assay: Induction of mitochondrial apoptosis in human HCCLM9 cells assessed as inhibition of p-mTOR levels at 3.75 to 15 uM measured after 48 hrs by Western blot analysis; format: functional, cell-based; details: dose 3.75-15 µM
HGC-27 = assay: Antiproliferative activity against human HGC-27 cells after 72 hrs by MTT assay; format: functional, cell-based; details: HGC-27, 72 h

IC50 (SK-HEP1): 16.5 µM
IC50 (BGC-823): 17.7 µM
IC50 (HCCLM9 [4]): 6.83 µM
IC50 (HepG2): 52 µM
IC50 (SGC-7901): 30.8 µM
IC50 (MCF7): 22.4 µM
IC50 (HL-60): 59.1 µM
Structure (SMILES): CNCc1cc2c(cc1-c1cc3ccc4c(c3cn1)OCO4)OCO2
Activity (Huh-7 [1]): Active
Activity (Huh-7 [2]): Active
Activity (HCCLM9 [3]): Active
IC50 (RKO): 47.8 µM
Activity (HCCLM9 [5]): Active
Activity (Huh-7 [6]): Active
Activity [7]: Non-Toxic
inhibition (Huh-7 [8]): Active
inhibition (HCCLM9 [9]): Active
Activity (HCCLM9 [10]): Active
Activity (Huh-7 [11]): Active
Activity (Huh-7 [12]): Active
inhibition (HCCLM9 [13]): Active
Activity (HCCLM9 [14]): Active
Activity (Huh-7 [15]): Active
Activity (HCCLM9 [16]): Active
IC50 (HGC-27): 34.2 µM
